Experimental data from US6537267B1, “Method for chronic catheterization of the common bile duct of a laboratory rat” (priority 2001, dated 2003).

Test: Determination of maximal biliary ICG excretion rate
Format: in vivo, rat
Method: Bile was obtained through the bile catheter by inserting a 23-gauge infusion set needle (Abbott Laboratories) from which all but 0.5 in of tubing had been removed, and approximately 24 inches of saline-filled PE 60 tubing attached. A sterile 1.5 mL sampling tube was attached to the tubing end, and bile was withdrawn by suspending the sampling tube below the cage using negative pressure. Bile was collected into tared sampling tubes at 5 minute intervals during a 90 minute period during which ICG was infused into the IVC at 50 μg/minute. ICG, 1 mL/h was delivered by a Razel Scientific (Stamford, Conn.) infusion pump with a 3 mL Becton Dickinson (Franklin Lakes, N.J.) syringe.
Bile flow rate was calculated using the net sampling tube weight assuming a bile density of 1 g/mL. A total of 10 μL of bile from each sample tube was aliquoted to determine ICG concentration. The remainder of the bile was infused into the duodenal catheter to maintain enterohepatic circulation of bile acids. Biliary ICG concentrations were measured spectrophotometrically at wavelength 805 nm. Biliary ICG excretion was calculated for each 5 minute interval by multiplying the bile flow rate by the biliary ICG concentration.
To establish a sensitive and reliable measure of hepatic dysfunction, the maximal biliary ICG excretion rate under physiologic conditions was determined. This measure, which detected even minor changes in biliary ICG excretion, was critical to subsequent primary studies. The animals were anesthetized with ketamine (60 mg/kg) and xylazine (5 mg/kg) intramuscularly. […] The blood concentrations and biliary excretion rates of ICG was measured during a constant infusion of ICG at 10, 20, 50, 100, and 200 μg/minute for 90 minutes in 8 rats that served as their own controls for the different doses on separate days. […] Biliary ICG excretion was measured as described above. Aortic blood samples (0.25 mL) were collected every 10 minutes and analyzed for ICG concentration. Following each blood draw, the animals were transfused with an equal volume of blood obtained immediately prior to transfusion from other untreated chronically catheterized rats that were previously designated as donors. […] After an initial 30 minute equilibration period mean biliary ICG excretion remained at a steady state concentration between 30 and 90 minutes of ICG infusion. […] The bile flow rate was unaffected by any of the tested ICG concentrations.

[1] = ICG infusion 100 and 200 μg/minute

CC1(C)C(/C=C/C=C/C=C/C=C2\N(CCCCS(=O)(=O)O)c3ccc4ccccc4c3C2(C)C)=[N+](CCCCS(=O)(=O)[O-])c2ccc3ccccc3c21 [ICG, Indocyanine green]
biliary ICG excretion rate between 30 and 90 minutes vs 50 μg/minute [1]: did not yield a greater biliary ICG excretion rate | mean blood ICG concentrations between 30 and 90 minutes vs 50 μg/minute [1]: significantly increase mean blood ICG concentrations | effect of ICG on bile flow rate (any of the tested ICG concentrations (10-200 μg/minute)): unaffected | equilibration period before steady state biliary ICG excretion (constant ICG infusion): 30 min
